Blank lines part the entries; values can stand above or below the compound they belong to.
Key:
[1] = Log D pH 7.4 measurement (n-octanol/PBS); format: physicochemical; conditions: n-octanol/PBS pH 7.4
Description: The samples were vortexed for 20 min and centrifuged at 6000 rpm for 5 min. Aliquots (0.1 mL) were subsequently removed from both the aqueous and the organic n-octanol layers and counted separately in a γ counter (Wallac Wizard 1470 automatic γ counter). Measurements represent three separate experiments with four extractions in each set for a total of twelve data points. The partition coefficients were then calculated using the equation D=(activity concentration in n-octanol)/(activity concentration in aqueous layer).

[2] = Stability of I-TAAG construct in solution; format: physicochemical; conditions: 48 hours
Description: Reactions were complete within 10 min and the product was isolated by solid-phase extraction or semi-preparative HPLC.

[3] = Biodistribution study of 123I-TAAG in normal Balb/c mice; format: in vivo; conditions: tail vein injection
Text: Animals were anesthetized with 3% isoflurane and euthanized by cervical dislocation. Blood, heart, lungs, liver, spleen, kidneys, adrenals, stomach (with contents), large intestine and caecum (with contents) and small intestines (with contents), bladder and urine, thyroid/trachea, bone, skeletal muscle and tail were collected, weighed and counted in a Perkin Elmer Wizard 1470 Automatic Gamma Counter. Decay correction was used to normalize organ activity measurements to time of dose preparation for data calculations with respect to injected dose (i.e. % ID/g).

LNCaP xenografts = experiment: Biodistribution study of 123I-TAAG-PSMA in NCr nude mice bearing LNCaP xenografts; format: in vivo, NCr nude mice
Description: LNCaP cells derived from lymph node metastases of human prostate carcinoma were purchased from ATCC. Cells were propagated using RPMI 1640 media supplemented with 10% Fetal Bovine Serum, 4 mM L-glutamine, 1 mM Sodium Pyruvate, 10 mM Hepes, 1% Penicillin Streptomycin (Invitrogen, Mississauga ON) and 0.25% D-glucose (Sigma, Oakville ON) and grown at 37° C. and 5% CO2. NCr nude homo male mice ordered from Taconic (Germantown, N.Y., USA) were injected with 2.0×10^6 LNCaP cells in 100 μL Matrigel/DPBS (1:1) subcutaneously into the right flank at 7 to 8 weeks of age. […] Animals were anesthetized with 3% isoflurane and euthanized by cervical dislocation. Blood, bone, liver, gall bladder, spleen, small intestine (with contents), large intestine and caecum (with contents), bladder, urine, skeletal muscle, brain, LNCaP tumour, heart, lung, salivary glands, kidneys, stomach (with contents), prostate, thyroid/trachea, adrenals, esophagus, tail, adipose and testes were collected, weighed and counted in a Perkin Elmer Wizard 1470 Automatic Gamma Counter. Decay correction was used to normalize organ activity measurements to time of dose preparation for data calculations with respect to injected dose (i.e. % ID/g).

LNCaP tumours = experiment: SPECT-CT imaging study of 123I-TAAG-PSMA; format: in vivo, NCr mice
Description: Prior to imaging, mice were anaesthetized with 2.5% isoflurane and maintained under same conditions for the length of the SPECT and CT scans. Imaging was conducted on the first mouse at 2 and 6 hours post injection and on the second mouse at 4 and 23 hours post injection. At each time point, multiple SPECT acquisitions were completed for 32 frames at 10 sec/frame for the 2 hour time point, 20 sec/frame for the 4 and 6 hour time point or 30 sec/frame for the 23 hour time point on a GammaMedica Ideas X-SPECT system (North Ridge, Calif.). CT acquisitions consisted of 512 projections acquired over 360° with 75 Kvp, 205 mA cone beam CT system. Cobra Exxim software (Feldkamp filtered backprojection cone beam reconstruction software) was used to reconstruct the images at a voxel size of 155 microns and a matrix size of 512^3. An OS-EM interactive reconstructed method (2 iterations/8 subsets) was used to reconstruct the SPECT data which was fused to the CT data using in-house software. AMIDE software was used to analyze the images.

[4] = at pH 7.4; comparison value; cited from earlier work
[5] = 1 hr + block (PMPA 10 mg/kg), NCr nude mice bearing LNCaP xenografts, mean ± SEM
[6] = male, NCr nude, mouse, in vivo, 1 h
[7] = male, NCr nude, mouse, in vivo, 23 h
[8] = male, NCr nude, mouse, in vivo, 24 h

logD [1]: -2.58 ± 0.01
SMILES: O=C(O)Cn1cc(I)nn1 [^123I-TAAG, 2-(4-iodo-1H-1,2,3-triazol-1-yl)acetic acid]
stability in solution [2]: stable over 48 hours in solution with no signs of deiodination | clearance from organs (biodistribution) [3]: clears all major organs quickly and collects in the bladder within 30 minutes

SMILES: O=C(O)CC[C@H](NC(=O)N[C@@H](CCCCNC(=O)Cn1cc(I)nn1)C(=O)O)C(=O)O [^123I-TAAG-PSMA, (S)-2-(3-((S)-1-carboxy-5-(2-(4-iodo-1H-1,2,3-triazol-1-yl)acetamido)pentyl)ureido)pentanedioic acid]
logD [1]: -3.23 ± 0.05 | Tissue distribution, Adipose (LNCaP xenografts; [5]): 0.35 ± 0.21 % ID/g | Tissue distribution, Adrenals (LNCaP xenografts; [5]): 3.34 ± 1.49 % ID/g | Tissue distribution, Bladder (LNCaP xenografts; [5]): 10.78 ± 4.16 % ID/g | Tissue distribution, Blood (LNCaP xenografts; [5]): 0.32 ± 0.06 % ID/g | Tissue distribution, Bone (LNCaP xenografts; [5]): 0.26 ± 0.02 % ID/g | Tissue distribution, Brain (LNCaP xenografts; [5]): 0.05 ± 0.02 % ID/g | Tissue distribution, Esophagus (LNCaP xenografts; [5]): 0.32 ± 0.04 % ID/g | Tissue distribution, Gall Bladder (LNCaP xenografts; [5]): 1.32 ± 0.53 % ID/g | Tissue distribution, Heart (LNCaP xenografts; [5]): 0.15 ± 0.04 % ID/g | Tissue distribution, Kidneys (LNCaP xenografts; [5]): 9.57 ± 5.17 % ID/g | Tissue distribution, Large Intestine + Caecum (LNCaP xenografts; [5]): 0.12 ± 0.03 % ID/g | Tissue distribution, Liver (LNCaP xenografts; [5]): 2.25 ± 0.29 % ID/g | Tissue distribution, Lung (LNCaP xenografts; [5]): 0.36 ± 0.08 % ID/g | Tissue distribution, Prostate (LNCaP xenografts; [5]): 3.85 ± 2.91 % ID/g | Tissue distribution, Salivary Glands (LNCaP xenografts; [5]): 0.52 ± 0.12 % ID/g | Tissue distribution, Skeletal Muscle (LNCaP xenografts; [5]): 0.19 ± 0.03 % ID/g | Tissue distribution, Small Intestine (LNCaP xenografts; [5]): 0.30 ± 0.09 % ID/g | Tissue distribution, Spleen (LNCaP xenografts; [5]): 0.13 ± 0.03 % ID/g | Tissue distribution, Stomach (LNCaP xenografts; [5]): 0.49 ± 0.07 % ID/g | Tissue distribution, Testes (LNCaP xenografts; [5]): 1.16 ± 1.05 % ID/g | Tissue distribution, Thyroid/Trachea (LNCaP xenografts; [5]): 0.62 ± 0.24 % ID/g | Tissue distribution, Urine (LNCaP xenografts; [5]): 486.70 ± 163.60 % ID/g | Tissue distribution, Adipose (LNCaP xenografts; [6]): 1.73 ± 0.26 % ID/g | Tissue distribution, Adrenals (LNCaP xenografts; [6]): 8.45 ± 2.13 % ID/g | Tissue distribution, Bladder (LNCaP xenografts; [6]): 1.78 ± 0.23 % ID/g | Tissue distribution, Blood (LNCaP xenografts; [6]): 0.81 ± 0.07 % ID/g | Tissue distribution, Bone (LNCaP xenografts; [6]): 0.41 ± 0.07 % ID/g | Tissue distribution, Brain (LNCaP xenografts; [6]): 0.06 ± 0.01 % ID/g | Tissue distribution, Esophagus (LNCaP xenografts; [6]): 1.3 ± 0.26 % ID/g | Tissue distribution, Gall Bladder (LNCaP xenografts; [6]): 1.28 ± 0.26 % ID/g | Tissue distribution, Heart (LNCaP xenografts; [6]): 0.85 ± 0.29 % ID/g | Tissue distribution, Kidneys (LNCaP xenografts; [6]): 137.54 ± 11.43 % ID/g | Tissue distribution, Large Intestine + Caecum (LNCaP xenografts; [6]): 0.27 ± 0.06 % ID/g | Tissue distribution, Liver (LNCaP xenografts; [6]): 2.32 ± 0.28 % ID/g | Tissue distribution, Lung (LNCaP xenografts; [6]): 2.58 ± 0.46 % ID/g | Tissue distribution, Prostate (LNCaP xenografts; [6]): 1.89 ± 0.62 % ID/g | Tissue distribution, Salivary Glands (LNCaP xenografts; [6]): 2.97 ± 0.95 % ID/g | Tissue distribution, Skeletal Muscle (LNCaP xenografts; [6]): 0.33 ± 0.04 % ID/g | Tissue distribution, Small Intestine (LNCaP xenografts; [6]): 0.64 ± 0.13 % ID/g | Tissue distribution, Spleen (LNCaP xenografts; [6]): 4.98 ± 1.31 % ID/g | Tissue distribution, Stomach (LNCaP xenografts; [6]): 0.90 ± 0.07 % ID/g | Tissue distribution, Testes (LNCaP xenografts; [6]): 0.69 ± 0.10 % ID/g | Tissue distribution, Thyroid/Trachea (LNCaP xenografts; [6]): 1.46 ± 0.3 % ID/g | Tissue distribution, Urine (LNCaP xenografts; [6]): 43.99 ± 5.54 % ID/g | Tumor to tissue ratio, Tumour/blood (LNCaP xenografts; [6]): 28.22 ± 7.12 | Tumor to tissue ratio, Tumour/skeletal muscle (LNCaP xenografts; [6]): 78.06 ± 30.62 | activity retained in the tumour (LNCaP xenografts; [7]): 15 % ID/g | remaining activity in the thyroid (LNCaP xenografts; [7]): about 10 % ID/g | Tissue distribution, Adipose (LNCaP xenografts; [8]): 0.02 ± 0.01 % ID/g | Tissue distribution, Adrenals (LNCaP xenografts; [8]): 0.33 ± 0.07 % ID/g | Tissue distribution, Bladder (LNCaP xenografts; [8]): 0.08 ± 0.02 % ID/g | Tissue distribution, Blood (LNCaP xenografts; [8]): 0.01 ± 0.00 % ID/g | Tissue distribution, Bone (LNCaP xenografts; [8]): 0.04 ± 0.01 % ID/g | Tissue distribution, Brain (LNCaP xenografts; [8]): 0.03 ± 0.00 % ID/g | Tissue distribution, Esophagus (LNCaP xenografts; [8]): 0.07 ± 0.01 % ID/g | Tissue distribution, Gall Bladder (LNCaP xenografts; [8]): 0.19 ± 0.08 % ID/g | Tissue distribution, Heart (LNCaP xenografts; [8]): 0.01 ± 0.00 % ID/g | Tissue distribution, Kidneys (LNCaP xenografts; [8]): 0.99 ± 0.27 % ID/g | Tissue distribution, LNCap Tumour (LNCaP xenografts; [8]): 15.31 ± 4.23 % ID/g | Tissue distribution, Large Intestine + Caecum (LNCaP xenografts; [8]): 0.04 ± 0.01 % ID/g | Tissue distribution, Liver (LNCaP xenografts; [8]): 0.03 ± 0.01 % ID/g | Tissue distribution, Lung (LNCaP xenografts; [8]): 0.01 ± 0.00 % ID/g | Tissue distribution, Prostate (LNCaP xenografts; [8]): 0.09 ± 0.03 % ID/g | Tissue distribution, Salivary Glands (LNCaP xenografts; [8]): 0.05 ± 0.01 % ID/g | Tissue distribution, Skeletal Muscle (LNCaP xenografts; [8]): 0.01 ± 0.00 % ID/g | Tissue distribution, Small Intestine (LNCaP xenografts; [8]): 0.02 ± 0.01 % ID/g | Tissue distribution, Spleen (LNCaP xenografts; [8]): 0.03 ± 0.00 % ID/g | Tissue distribution, Stomach (LNCaP xenografts; [8]): 0.07 ± 0.03 % ID/g | Tissue distribution, Testes (LNCaP xenografts; [8]): 0.01 ± 0.00 % ID/g | Tissue distribution, Thyroid/Trachea (LNCaP xenografts; [8]): 9.36 ± 1.05 % ID/g | Tissue distribution, Urine (LNCaP xenografts; [8]): 1.04 ± 0.39 % ID/g | Tumor to tissue ratio, Tumour/blood (LNCaP xenografts; [8]): 1867 ± 499.72 | Tumor to tissue ratio, Tumour/skeletal muscle (LNCaP xenografts; [8]): 1531 ± 422.74 | SPECT-CT image uptake (LNCaP tumours; 23-24 hours post injection): the activity was found only in the tumour and in the thyroid | SPECT-CT image uptake (LNCaP tumours; two hours post injection): uptake of the agent in the kidneys, bladder and a small amount in the tumour

SMILES: O=C(O)c1ccc(I)cc1 [p-iodobenzoic acid]
log D [4]: 0.07

Source: patent US20140065070A1, “METHODS OF PREPARING TRIAZOLE-CONTAINING RADIOIODINATED COMPOUNDS” (MCMASTER UNIVERSITY, priority 2012, published 2014)
